Data reported in BindingDB's records for doi:10.1016/S0960-894X(97)00406-X (1997).
Counter-ions that a name gives are not always drawn.

Assay: Compound was evaluated for the inhibition of Opioid receptor delta 1 binding to guinea pig brain membranes, using 0.2 nM [3H]naltrindole as radioligand

Row | Structure (SMILES) | Ki
1 | CN(C(=O)Cc1ccc(Cl)c(Cl)c1)C(CN1CCCC1)c1cccc(NC(=S)Nc2ccc(-c3c4ccc(=O)cc-4oc4cc(O)ccc34)c(C(=O)O)c2)c1 (stereo not given) [5-{3-[3-(1-{[2-(3,4-Dichloro-phenyl)-acetyl]-methyl-amino}-2-pyrrolidin-1-yl-ethyl)-phenyl]-thioureido}-2-(6-hydroxy-3-oxo-3H-xanthen-9-yl)-benzoic acid] | 1.8 nM
2 | CN(C(=O)Cc1ccc(Cl)c(Cl)c1)[C@@H](CN1CCCC1)c1cccc(NC(=S)Nc2ccc(-c3c4ccc(=O)cc-4oc4cc(O)ccc34)c(C(=O)O)c2)c1 [5-{3-[3-((R)-1-{[2-(3,4-Dichloro-phenyl)-acetyl]-methyl-amino}-2-pyrrolidin-1-yl-ethyl)-phenyl]-thioureido}-2-(6-hydroxy-3-oxo-3H-xanthen-9-yl)-benzoic acid] | 86 nM
3 | CN(C(=O)Cc1ccc(Cl)c(Cl)c1)[C@H](CN1CCCC1)c1cccc(NC(=S)Nc2ccc(-c3c4ccc(=O)cc-4oc4cc(O)ccc34)c(C(=O)O)c2)c1 [5-{3-[3-((S)-1-{[2-(3,4-Dichloro-phenyl)-acetyl]-methyl-amino}-2-pyrrolidin-1-yl-ethyl)-phenyl]-thioureido}-2-(6-hydroxy-3-oxo-3H-xanthen-9-yl)-benzoic acid] | 0.898 nM
4 | CC(=O)Nc1cccc([C@H](CN2CCCC2)N(C)C(=O)Cc2ccc(Cl)c(Cl)c2)c1 [N-[(R)-1-(3-Acetylamino-phenyl)-2-pyrrolidin-1-yl-ethyl]-2-(3,4-dichloro-phenyl)-N-methyl-acetamide; hydrochloride] | 3070 nM
5 | CC(=O)Nc1cccc([C@@H](CN2CCCC2)N(C)C(=O)Cc2ccc(Cl)c(Cl)c2)c1 [N-[(S)-1-(3-Acetylamino-phenyl)-2-pyrrolidin-1-yl-ethyl]-2-(3,4-dichloro-phenyl)-N-methyl-acetamide; hydrochloride] | 14 nM
